Data published in patent US6479435B1, “Diaryl ethers and processes for their preparation and herbicidal and desiccant compositions containing them” (ISK Americas Incorporated, priority 1997, dated 2002).

Assays:
Assay type in all cases: in vivo
[1] = system: field corn (Zea mays L., var. Dekalb 535, CORN); assay: Post-emerge greenhouse test, crop damage rating; conditions: 14 days after application
Procedure, shortened: (§1)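 Plants at the 2-3 leaf stage, sown 8-21 days earlier, were track-sprayed post-emergence with compound in acetone plus 0.25% v/v non-ionic surfactant at 63-1000 g ai/ha (187 l/ha). Damage was rated at 14 days on a 0-100 scale (0 none, 100 all plants dead), for both crop injury and weed control.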

[2] = system: upland rice (Oryza sp., var.Tebonnet, RICE); assay: Post-emerge greenhouse test, crop damage rating; conditions: 14 days after application
Procedure, shortened: as §1

[3] = system: field corn (Zea mays L., var. Dekalb 535, CORN); assay: Pre-emerge greenhouse test, crop damage rating; conditions: 14 days after application, rating scale 0-100
Procedure, shortened: (§2)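 Seeds sown in sandy loam one day before track-sprayer application of acetone solutions at 125–1000 g ai/ha (187 l/ha), then surface-watered to incorporate and bottom-watered. Injury scored visually at 14 days on a 0–100 scale (0 no damage, 100 complete death).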

[4] = system: upland rice (Oryza sp., var.Tebonnet, RICE); assay: Pre-emerge greenhouse test, crop damage rating; conditions: 14 days after application, rating scale 0-100
Procedure, shortened: as §2

[5] = system: ivyleaf morningglory (Ipomoea hederacea, IPOHE); assay: Pre-emerge greenhouse herbicide test, phytotoxicity rating; conditions: 14 days after application, rating scale 0-100
Procedure, shortened: as §2

[6] = system: Johnsongrass (Sorghum halepense, SORHA); assay: as above; conditions: 14 days after application, rating scale 0-100
Procedure, shortened: as §2

[7] = system: barnyardgrass (Echinochloa crusgalli, ECHCG); assay: as above; conditions: 14 days after application, rating scale 0-100
Procedure, shortened: as §2

[8] = system: green foxtail (Setaria viridis, SETVI); assay: as above; conditions: 14 days after application, rating scale 0-100
Procedure, shortened: as §2

[9] = system: velvetleaf (Abutilon theophrasti, ABUTH); assay: as above; conditions: 14 days after application, rating scale 0-100
Procedure, shortened: as §2

[10] = system: large crabgrass (Digitaria sanguinalis, DIGSA); assay: as above; conditions: 14 days after application, rating scale 0-100
Procedure, shortened: as §2

[11] = system: sicklepod (Cassia obtusifolia, CASOB); assay: as above; conditions: 14 days after application, rating scale 0-100
Procedure, shortened: as §2

[12] = system: lambsquarters (Chenopodium album, CHEAL); assay: as above; conditions: 14 days after application, rating scale 0-100
Procedure, shortened: as §2

[13] = system: common ragweed (Ambrosia artemisiifolia L., AMBEL); assay: as above; conditions: 14 days after application, rating scale 0-100
Procedure, shortened: as §2

[14] = system: redroot pigweed (Amaranthus retroflexus, AMARE); assay: as above; conditions: 14 days after application, rating scale 0-100
Procedure, shortened: as §2

[15] = system: ivyleaf morningglory (Ipomoea hederacea, IPOHE); assay: Post-emerge greenhouse herbicide test, phytotoxicity rating; conditions: 14 days after application
Procedure, shortened: as §1

[16] = system: Johnsongrass (Sorghum halepense, SORHA); assay: as above; conditions: 14 days after application
Procedure, shortened: as §1

[17] = system: barnyardgrass (Echinochloa crusgalli, ECHCG); assay: as above; conditions: 14 days after application
Procedure, shortened: as §1

[18] = system: green foxtail (Setaria viridis, SETVI); assay: as above; conditions: 14 days after application
Procedure, shortened: as §1

[19] = system: velvetleaf (Abutilon theophrasti, ABUTH); assay: as above; conditions: 14 days after application
Procedure, shortened: as §1

[20] = system: large crabgrass (Digitaria sanguinalis, DIGSA); assay: as above; conditions: 14 days after application
Procedure, shortened: as §1

[21] = system: sicklepod (Cassia obtusifolia, CASOB); assay: as above; conditions: 14 days after application
Procedure, shortened: as §1

[22] = system: lambsquarters (Chenopodium album, CHEAL); assay: as above; conditions: 14 days after application
Procedure, shortened: as §1

[23] = system: redroot pigweed (Amaranthus retroflexus, AMARE); assay: as above; conditions: 14 days after application
Procedure, shortened: as §1

[24] = system: soybean (Glycine max L., var. Pella 86, SOY); assay: Pre-emerge greenhouse test, crop damage rating; conditions: 14 days after application, rating scale 0-100
Procedure, shortened: as §2

[25] = system: common ragweed (Ambrosia artemisiifolia L., AMBEL); assay: Post-emerge greenhouse herbicide test, phytotoxicity rating; conditions: 14 days after application
Procedure, shortened: as §1

[26] = system: soybean (Glycine max L., var. Pella 86, SOY); assay: Post-emerge greenhouse test, crop damage rating; conditions: 14 days after application
Procedure, shortened: as §1

O=c1n(-c2cc(Oc3ccccc3[N+](=O)[O-])c(Cl)cc2F)c(=S)n2n1CCCC2 [Compound 8-6]
30: SORHA phytotoxicity rating (0-100) ([16]; 500 g al/ha) | ECHCG phytotoxicity rating (0-100) ([17]; 500 g al/ha) | SETVI phytotoxicity rating (0-100) ([18]; 63 g al/ha) | DIGSA phytotoxicity rating (0-100) ([20]; 500 g al/ha)
20: CORN crop damage rating (0-100) ([1]; 500 g al/ha) | phytotoxicity rating SORHA ([6]; 125 g ai/ha) | phytotoxicity rating ECHCG ([7]; 125 g ai/ha) | crop damage rating SOY ([24]; 125 g ai/ha)
10: crop damage rating RICE ([4]; 125 g ai/ha) | ECHCG phytotoxicity rating (0-100) ([17]; 63 g al/ha)
60: CASOB phytotoxicity rating (0-100) ([21]; 63 g al/ha) | AMBEL phytotoxicity rating (0-100) ([25]; 63 g al/ha)
40: crop damage rating RICE ([4]; 500 g ai/ha) | phytotoxicity rating DIGSA ([10]; 125 g ai/ha) | phytotoxicity rating AMBEL ([13]; 125 g ai/ha) | crop damage rating SOY ([24]; 500 g ai/ha)
100: phytotoxicity rating SETVI ([8]; 500 g ai/ha) | phytotoxicity rating ABUTH ([9]; 125 g ai/ha) | phytotoxicity rating ABUTH ([9]; 500 g ai/ha) | phytotoxicity rating DIGSA ([10]; 500 g ai/ha) | phytotoxicity rating CASOB ([11]; 125 g ai/ha) | phytotoxicity rating CHEAL ([12]; 125 g ai/ha) | phytotoxicity rating CHEAL ([12]; 500 g ai/ha) | phytotoxicity rating AMBEL ([13]; 500 g ai/ha) | phytotoxicity rating AMARE ([14]; 125 g ai/ha) | phytotoxicity rating AMARE ([14]; 500 g ai/ha) | IPOHE phytotoxicity rating (0-100) ([15]; 500 g al/ha) | ABUTH phytotoxicity rating (0-100) ([19]; 63 g al/ha) | ABUTH phytotoxicity rating (0-100) ([19]; 500 g al/ha) | CASOB phytotoxicity rating (0-100) ([21]; 500 g al/ha) | AMARE phytotoxicity rating (0-100) ([23]; 63 g al/ha) | AMARE phytotoxicity rating (0-100) ([23]; 500 g al/ha)
90: phytotoxicity rating IPOHE ([5]; 500 g ai/ha) | IPOHE phytotoxicity rating (0-100) ([15]; 63 g al/ha) | SETVI phytotoxicity rating (0-100) ([18]; 500 g al/ha) | CHEAL phytotoxicity rating (0-100) ([22]; 63 g al/ha) | AMBEL phytotoxicity rating (0-100) ([25]; 500 g al/ha) | SOY crop damage rating (0-100) ([26]; 500 g al/ha)
70: SOY crop damage rating (0-100) ([26]; 63 g al/ha)
0: crop damage rating CORN ([3]; 125 g ai/ha) | crop damage rating CORN ([3]; 500 g ai/ha) | SORHA phytotoxicity rating (0-100) ([16]; 63 g al/ha) | DIGSA phytotoxicity rating (0-100) ([20]; 63 g al/ha)
99: CHEAL phytotoxicity rating (0-100) ([22]; 500 g al/ha)
95: phytotoxicity rating SETVI ([8]; 125 g ai/ha) | phytotoxicity rating CASOB ([11]; 500 g ai/ha)
5: CORN crop damage rating (0-100) ([1]; 63 g al/ha) | RICE crop damage rating (0-100) ([2]; 63 g al/ha)
50: RICE crop damage rating (0-100) ([2]; 500 g al/ha) | phytotoxicity rating IPOHE ([5]; 125 g ai/ha) | phytotoxicity rating SORHA ([6]; 500 g ai/ha) | phytotoxicity rating ECHCG ([7]; 500 g ai/ha)

O=c1n(-c2cc(Oc3ccc([N+](=O)[O-])cc3)c(Cl)cc2F)c(=S)n2n1CCCC2 [Compound 8-8]
5: crop damage rating CORN ([3]; 125 g ai/ha)
75: SOY crop damage rating (0-100) ([26]; 500 g al/ha)
25: SOY crop damage rating (0-100) ([26]; 63 g al/ha)
95: phytotoxicity rating SETVI ([8]; 500 g ai/ha) | ABUTH phytotoxicity rating (0-100) ([19]; 63 g al/ha) | AMARE phytotoxicity rating (0-100) ([23]; 63 g al/ha)
30: phytotoxicity rating SORHA ([6]; 125 g ai/ha) | phytotoxicity rating SORHA ([6]; 500 g ai/ha) | SETVI phytotoxicity rating (0-100) ([18]; 500 g al/ha) | AMBEL phytotoxicity rating (0-100) ([25]; 63 g al/ha)
50: IPOHE phytotoxicity rating (0-100) ([15]; 500 g al/ha)
40: phytotoxicity rating DIGSA ([10]; 125 g ai/ha) | phytotoxicity rating DIGSA ([10]; 500 g ai/ha) | CASOB phytotoxicity rating (0-100) ([21]; 63 g al/ha) | CASOB phytotoxicity rating (0-100) ([21]; 500 g al/ha) | AMBEL phytotoxicity rating (0-100) ([25]; 500 g al/ha)
99: CHEAL phytotoxicity rating (0-100) ([22]; 63 g al/ha)
10: CORN crop damage rating (0-100) ([1]; 63 g al/ha) | CORN crop damage rating (0-100) ([1]; 500 g al/ha) | RICE crop damage rating (0-100) ([2]; 500 g al/ha) | phytotoxicity rating IPOHE ([5]; 500 g ai/ha) | phytotoxicity rating CHEAL ([12]; 500 g ai/ha) | SORHA phytotoxicity rating (0-100) ([16]; 63 g al/ha) | ECHCG phytotoxicity rating (0-100) ([17]; 63 g al/ha)
80: phytotoxicity rating CASOB ([11]; 500 g ai/ha)
20: phytotoxicity rating ECHCG ([7]; 500 g ai/ha) | phytotoxicity rating AMBEL ([13]; 500 g ai/ha) | SETVI phytotoxicity rating (0-100) ([18]; 63 g al/ha) | crop damage rating SOY ([24]; 500 g ai/ha)
90: phytotoxicity rating ABUTH ([9]; 125 g ai/ha) | IPOHE phytotoxicity rating (0-100) ([15]; 63 g al/ha)
0: RICE crop damage rating (0-100) ([2]; 63 g al/ha) | crop damage rating CORN ([3]; 500 g ai/ha) | crop damage rating RICE ([4]; 125 g ai/ha) | crop damage rating RICE ([4]; 500 g ai/ha) | phytotoxicity rating IPOHE ([5]; 125 g ai/ha) | phytotoxicity rating ECHCG ([7]; 125 g ai/ha) | phytotoxicity rating CASOB ([11]; 125 g ai/ha) | phytotoxicity rating CHEAL ([12]; 125 g ai/ha) | phytotoxicity rating AMBEL ([13]; 125 g ai/ha) | SORHA phytotoxicity rating (0-100) ([16]; 500 g al/ha) | ECHCG phytotoxicity rating (0-100) ([17]; 500 g al/ha) | DIGSA phytotoxicity rating (0-100) ([20]; 63 g al/ha) | DIGSA phytotoxicity rating (0-100) ([20]; 500 g al/ha) | crop damage rating SOY ([24]; 125 g ai/ha)
60: phytotoxicity rating SETVI ([8]; 125 g ai/ha)
100: phytotoxicity rating ABUTH ([9]; 500 g ai/ha) | phytotoxicity rating AMARE ([14]; 125 g ai/ha) | phytotoxicity rating AMARE ([14]; 500 g ai/ha) | ABUTH phytotoxicity rating (0-100) ([19]; 500 g al/ha) | CHEAL phytotoxicity rating (0-100) ([22]; 500 g al/ha) | AMARE phytotoxicity rating (0-100) ([23]; 500 g al/ha)
